Target: T1, LRRK2 (endogenous, HiBit tagged) (Homo sapiens, UniProt Q5S007)
T1 construct: endogenous in cells; host or cells: HEK293 cells with HiBit knock-in at the endogenous LRRK2 locus, stably expressing firefly luciferase
Experiment: Endogenous LRRK2 degradation assay, endogenous gene C-terminally HiBit-tagged in HEK293 cells (Nano-Glo Dual Luciferase)
Format: cell-based
Details: endogenous HiBit-tagged LRRK2 in HEK293 cells, 24 hours treatment; for Dmax: read-out: **Endogenous WT Dmax (%); for DC50: read-out: *Endogenous WT DC50
Method in brief: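 LRRK2-HiBit quantified via Nano-Glo Dual Luciferase in HEK293 knock-in cells co-expressing firefly luciferase, after 24 h exposure to compound (1 μM final top, 1:3, 11 points). Values normalised to DMSO median per plate and curve-fitted; Alamar Blue viability run alongside.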

T1 sequence (Q5S007 whole entry): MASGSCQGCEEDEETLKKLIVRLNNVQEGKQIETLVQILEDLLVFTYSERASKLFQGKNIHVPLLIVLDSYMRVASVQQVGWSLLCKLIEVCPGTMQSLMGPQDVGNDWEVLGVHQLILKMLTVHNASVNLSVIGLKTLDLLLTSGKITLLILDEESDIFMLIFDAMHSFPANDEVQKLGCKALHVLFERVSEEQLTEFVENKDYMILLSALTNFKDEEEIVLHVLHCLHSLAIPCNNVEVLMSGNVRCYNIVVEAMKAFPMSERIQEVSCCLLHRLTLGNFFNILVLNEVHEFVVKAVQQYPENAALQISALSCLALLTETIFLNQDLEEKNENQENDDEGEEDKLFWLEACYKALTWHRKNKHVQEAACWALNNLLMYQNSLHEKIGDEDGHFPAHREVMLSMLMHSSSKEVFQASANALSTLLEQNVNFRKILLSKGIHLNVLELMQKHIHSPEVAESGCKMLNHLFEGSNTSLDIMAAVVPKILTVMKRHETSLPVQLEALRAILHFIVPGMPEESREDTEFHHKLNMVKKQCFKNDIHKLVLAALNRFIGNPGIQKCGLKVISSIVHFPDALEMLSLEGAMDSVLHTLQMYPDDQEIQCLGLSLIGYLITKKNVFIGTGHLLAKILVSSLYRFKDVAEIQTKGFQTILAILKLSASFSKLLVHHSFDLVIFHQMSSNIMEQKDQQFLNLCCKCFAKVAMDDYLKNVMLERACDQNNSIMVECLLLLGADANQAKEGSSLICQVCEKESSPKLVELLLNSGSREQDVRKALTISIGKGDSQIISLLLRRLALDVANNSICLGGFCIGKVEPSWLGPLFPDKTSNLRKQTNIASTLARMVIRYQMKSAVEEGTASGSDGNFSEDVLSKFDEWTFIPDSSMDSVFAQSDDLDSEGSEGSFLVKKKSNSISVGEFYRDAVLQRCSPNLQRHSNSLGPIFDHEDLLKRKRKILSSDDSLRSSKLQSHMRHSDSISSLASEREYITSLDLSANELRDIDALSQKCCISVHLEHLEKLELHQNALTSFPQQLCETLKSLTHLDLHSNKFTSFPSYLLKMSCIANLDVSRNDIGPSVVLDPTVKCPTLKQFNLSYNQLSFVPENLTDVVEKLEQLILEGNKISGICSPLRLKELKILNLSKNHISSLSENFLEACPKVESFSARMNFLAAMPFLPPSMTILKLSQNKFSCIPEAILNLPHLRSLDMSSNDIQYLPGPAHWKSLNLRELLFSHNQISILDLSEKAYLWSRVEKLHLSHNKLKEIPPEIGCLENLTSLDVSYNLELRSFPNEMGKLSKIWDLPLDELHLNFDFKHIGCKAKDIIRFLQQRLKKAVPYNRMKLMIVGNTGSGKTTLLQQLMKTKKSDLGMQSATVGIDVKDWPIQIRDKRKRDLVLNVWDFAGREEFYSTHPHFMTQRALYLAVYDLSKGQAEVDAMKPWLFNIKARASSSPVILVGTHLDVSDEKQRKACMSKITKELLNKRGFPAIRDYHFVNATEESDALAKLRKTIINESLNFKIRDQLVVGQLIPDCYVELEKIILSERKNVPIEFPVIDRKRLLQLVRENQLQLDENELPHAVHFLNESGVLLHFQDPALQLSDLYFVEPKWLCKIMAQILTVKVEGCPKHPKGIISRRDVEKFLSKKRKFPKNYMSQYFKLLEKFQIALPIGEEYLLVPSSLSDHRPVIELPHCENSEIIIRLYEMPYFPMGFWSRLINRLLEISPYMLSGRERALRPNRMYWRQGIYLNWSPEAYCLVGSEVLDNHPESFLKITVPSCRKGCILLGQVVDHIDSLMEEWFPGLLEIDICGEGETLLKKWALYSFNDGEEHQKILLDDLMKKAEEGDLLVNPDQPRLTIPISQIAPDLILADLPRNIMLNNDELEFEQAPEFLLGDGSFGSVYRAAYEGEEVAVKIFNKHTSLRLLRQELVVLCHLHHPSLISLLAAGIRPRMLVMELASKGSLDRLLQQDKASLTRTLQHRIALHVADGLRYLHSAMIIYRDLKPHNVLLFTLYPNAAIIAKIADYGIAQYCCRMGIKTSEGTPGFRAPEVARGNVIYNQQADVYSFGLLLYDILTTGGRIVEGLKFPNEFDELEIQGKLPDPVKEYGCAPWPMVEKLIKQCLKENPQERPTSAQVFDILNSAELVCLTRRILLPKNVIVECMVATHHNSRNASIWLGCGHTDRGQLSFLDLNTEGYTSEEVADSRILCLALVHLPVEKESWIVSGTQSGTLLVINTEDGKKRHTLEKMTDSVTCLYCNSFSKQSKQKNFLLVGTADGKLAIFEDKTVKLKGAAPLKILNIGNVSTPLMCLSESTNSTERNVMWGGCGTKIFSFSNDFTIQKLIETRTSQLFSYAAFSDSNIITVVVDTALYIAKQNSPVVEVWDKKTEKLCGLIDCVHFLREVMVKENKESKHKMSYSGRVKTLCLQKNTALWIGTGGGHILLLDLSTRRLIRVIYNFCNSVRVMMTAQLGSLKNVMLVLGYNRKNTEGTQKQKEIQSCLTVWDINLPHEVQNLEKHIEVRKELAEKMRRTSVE

SMILES	Dmax [%]	DC50 [nM]
CC1(Oc2cc3c(-c4cc(N5CCN(C[C@H]6CC[C@H](CN7CCN(c8ccc9c(c8F)CN(C8CCC(=O)NC8=O)C9=O)CC7)CC6)CC5)ncn4)n[nH]c3cn2)CC1 (stereo partly shown) [Compound 267, 3-[4-fluoro-1-oxo-5-(4-{[(1r,4r)-4-[(4-{6-[5-(1-methylcyclopropoxy)-1H-pyrazolo[3,4-c]pyridin-3-yl]pyrimidin-4-yl}piperazin-1-yl)methyl]cyclohexyl]methyl}piperazin-1-yl)-2,3-dihydro-1H-isoindol-2-yl]piperidine-2,6-dione]	≥ 70	< 10
COc1c(N2CCN(C[C@H]3CC[C@H](OC4CCN(c5cc(-c6n[nH]c7cnc(OC8(C)CC8)cc67)ncn5)CC4)CC3)CC2)ccc2c1CN(C1CCC(=O)NC1=O)C2=O (stereo partly shown) [Compound 268, 3-[4-methoxy-1-oxo-5-(4-{[(1r,4r)-4-[(1-{6-[5-(1-methylcyclopropoxy)-1H-pyrazolo[3,4-c]pyridin-3-yl]pyrimidin-4-yl}piperidin-4-yl)oxy]cyclohexyl]methyl}piperazin-1-yl)-2,3-dihydro-1H-isoindol-2-yl]piperidine-2,6-dione]	50 to 70	< 10
CC1(Oc2ccc3[nH]nc(-c4cc(N5CCC(O[C@H]6CC[C@H](CN7CCN(c8c(F)cc9c(c8F)CN(C8CCC(=O)NC8=O)C9=O)CC7)CC6)CC5)ncn4)c3c2)CC1 (stereo partly shown) [Compound 269, 3-[4,6-difluoro-1-oxo-5-(4-{[(1r,4r)-4-[(1-{6-[5-(1-methylcyclopropoxy)-1H-indazol-3-yl]pyrimidin-4-yl}piperidin-4-yl)oxy]cyclohexyl]methyl}piperazin-1-yl)-2,3-dihydro-1H-isoindol-2-yl]piperidine-2,6-dione]	50 to 70	< 10
COc1c(N2CCC(CN3CCN(CC4CCN(c5cc(-c6n[nH]c7cnc(OC8(C)CC8)cc67)ncn5)CC4)C[C@@H]3C)CC2)ccc2c1CN(C1CCC(=O)NC1=O)C2=O (stereo partly drawn) [Compound 271, 3-[4-methoxy-5-(4-{[(2S)-2-methyl-4-[(1-{6-[5-(1-methylcyclopropoxy)-1H-pyrazolo[3,4-c]pyridin-3-yl]pyrimidin-4-yl}piperidin-4-yl)methyl]piperazin-1-yl]methyl}piperidin-1-yl)-1-oxo-2,3-dihydro-1H-isoindol-2-yl]piperidine-2,6-dione]	50 to 70	< 10
COc1c(N2CCC(O[C@H]3CC[C@H](CN4CCN(c5cc(-c6n[nH]c7cnc(OC8(C)CC8)cc67)ncn5)CC4)CC3)CC2)ccc2c1CN(C1CCC(=O)NC1=O)C2=O (stereo partly shown) [Compound 273, 3-[4-methoxy-1-oxo-5-(4-{[(1r,4r)-4-[(4-{6-[5-(1-methylcyclopropoxy)-1H-pyrazolo[3,4-c]pyridin-3-yl]pyrimidin-4-yl}piperazin-1-yl)methyl]cyclohexyl]oxy}piperidin-1-yl)-2,3-dihydro-1H-isoindol-2-yl]piperidine-2,6-dione]	< 50	< 10
COc1c(N2CCC(O[C@H]3CC[C@H](CN4CCN(c5cc(-c6n[nH]c7cc(F)c(OC8(C)CC8)cc67)ncn5)CC4)CC3)CC2)ccc2c1CN(C1CCC(=O)NC1=O)C2=O (stereo partly shown) [Compound 280, 3-[4-methoxy-1-oxo-5-(4-{[(1r,4r)-4-[(4-{6-[6-fluoro-5-(1-methylcyclopropoxy)-1H-indazol-3-yl]pyrimidin-4-yl}piperazin-1-yl)methyl]cyclohexyl]oxy}piperidin-1-yl)-2,3-dihydro-1H-isoindol-2-yl]piperidine-2,6-dione]	50 to 70	< 10
COc1c(N2CCN(C[C@H]3CC[C@H](OC4CCN(c5cc(-c6n[nH]c7cc(F)c(OC8(C)CC8)cc67)ncn5)CC4)CC3)CC2)ccc2c1CN(C1CCC(=O)NC1=O)C2=O (stereo partly shown) [Compound 281, 3-[4-methoxy-1-oxo-5-(4-{[(1r,4r)-4-[(1-{6-[6-fluoro-5-(1-methylcyclopropoxy)-1H-indazol-3-yl]pyrimidin-4-yl}piperidin-4-yl)oxy]cyclohexyl]methyl}piperazin-1-yl)-2,3-dihydro-1H-isoindol-2-yl]piperidine-2,6-dione]	50 to 70	< 10
COc1c(N2CCC(CN3CCN(CC4CCN(c5cc(-c6n[nH]c7cnc(OC8(C)CC8)cc67)ncn5)CC4)[C@@H](C)C3)CC2)ccc2c1CN(C1CCC(=O)NC1=O)C2=O (stereo partly drawn) [Compound 282, 3-[4-methoxy-5-(4-{[(3S)-3-methyl-4-[(1-{6-[5-(1-methylcyclopropoxy)-1H-pyrazolo[3,4-c]pyridin-3-yl]pyrimidin-4-yl}piperidin-4-yl)methyl]piperazin-1-yl]methyl}piperidin-1-yl)-1-oxo-2,3-dihydro-1H-isoindol-2-yl]piperidine-2,6-dione]	≥ 70	< 10

The remaining lines, values ahead:

Dmax [%]	DC50 [nM]	SMILES
≥ 70	< 10	C[C@H]1CN(CC2CCN(c3ccc4c(c3F)CN(C3CCC(=O)NC3=O)C4=O)CC2)CCN1CC1CCN(c2cc(-c3n[nH]c4cnc(OC5(C)CC5)cc34)ncn2)CC1 (stereo partly drawn) [Compound 266, 3-[4-fluoro-5-(4-{[(3S)-3-methyl-4-[(1-{6-[5-(1-methylcyclopropoxy)-1H-pyrazolo[3,4-c]pyridin-3-yl]pyrimidin-4-yl}piperidin-4-yl)methyl]piperazin-1-yl]methyl}piperidin-1-yl)-1-oxo-2,3-dihydro-1H-isoindol-2-yl]piperidine-2,6-dione]
≥ 70	< 10	CC1(Oc2cc3c(-c4cc(N5CCC(CN6CCN(CC7CCN(c8ccc9c(c8F)CN(C8CCC(=O)NC8=O)C9=O)CC7)C(C)(C)C6)CC5)ncn4)n[nH]c3cn2)CC1 (stereo not shown) [Compound 270, 3-{5-[4-({2,2-dimethyl-4-[(1-{6-[5-(1-methylcyclopropoxy)-1H-pyrazolo[3,4-c]pyridin-3-yl]pyrimidin-4-yl}piperidin-4-yl)methyl]piperazin-1-yl}methyl)piperidin-1-yl]-4-fluoro-1-oxo-2,3-dihydro-1H-isoindol-2-yl}piperidine-2,6-dione]
50 to 70	< 10	C[C@@H]1CN(CC2CCN(c3cc(-c4n[nH]c5cnc(OC6(C)CC6)cc45)ncn3)CC2)CCN1CC1CCN(c2ccc3c(c2F)CN(C2CCC(=O)NC2=O)C3=O)CC1 (stereo partly drawn) [Compound 272, 3-[4-fluoro-5-(4-{[(2R)-2-methyl-4-[(1-{6-[5-(1-methylcyclopropoxy)-1H-pyrazolo[3,4-c]pyridin-3-yl]pyrimidin-4-yl}piperidin-4-yl)methyl]piperazin-1-yl]methyl}piperidin-1-yl)-1-oxo-2,3-dihydro-1H-isoindol-2-yl]piperidine-2,6-dione]
50 to 70	< 10	CC1(Oc2cc3c(-c4cc(N5CCC(CN6CCN(CC7CCN(c8ccc9c(c8F)CN(C8CCC(=O)NC8=O)C9=O)CC7)CC6(C)C)CC5)ncn4)n[nH]c3cc2F)CC1 (stereo not shown) [Compound 274, 3-{4-fluoro-5-[4-({4-[(1-{6-[6-fluoro-5-(1-methylcyclopropoxy)-1H-indazol-3-yl]pyrimidin-4-yl}piperidin-4-yl)methyl]-3,3-dimethylpiperazin-1-yl}methyl)piperidin-1-yl]-1-oxo-2,3-dihydro-1H-isoindol-2-yl}piperidine-2,6-dione]
50 to 70	< 10	CC1(Oc2cc3c(-c4cc(N5CCC(CN6CCN(CC7CCN(c8ccc9c(c8F)CN(C8CCC(=O)NC8=O)C9=O)CC7)C(C)(C)C6)CC5)ncn4)n[nH]c3cc2F)CC1 (stereo not shown) [Compound 275, 3-{4-fluoro-5-[4-({4-[(1-{6-[6-fluoro-5-(1-methylcyclopropoxy)-1H-indazol-3-yl]pyrimidin-4-yl}piperidin-4-yl)methyl]-2,2-dimethylpiperazin-1-yl}methyl)piperidin-1-yl]-1-oxo-2,3-dihydro-1H-isoindol-2-yl}piperidine-2,6-dione]
50 to 70	< 10	C[C@H]1CN(CC2CCN(c3cc(-c4n[nH]c5cnc(OC6(C)CC6)cc45)ncn3)CC2)CCN1CC1CCN(c2ccc3c(c2F)CN(C2CCC(=O)NC2=O)C3=O)CC1 (stereo partly drawn) [Compound 276, 3-[4-fluoro-5-(4-{[(2S)-2-methyl-4-[(1-{6-[5-(1-methylcyclopropoxy)-1H-pyrazolo[3,4-c]pyridin-3-yl]pyrimidin-4-yl}piperidin-4-yl)methyl]piperazin-1-yl]methyl}piperidin-1-yl)-1-oxo-2,3-dihydro-1H-isoindol-2-yl]piperidine-2,6-dione]
50 to 70	< 10	COc1c(N2CCC(CN3CCN(CC4CCN(c5cc(-c6n[nH]c7cnc(OC8(C)CC8)cc67)ncn5)CC4)CC3(C)C)CC2)ccc2c1CN(C1CCC(=O)NC1=O)C2=O (stereo not shown) [Compound 277, 3-{5-[4-({2,2-dimethyl-4-[(1-{6-[5-(1-methylcyclopropoxy)-1H-pyrazolo[3,4-c]pyridin-3-yl]pyrimidin-4-yl}piperidin-4-yl)methyl]piperazin-1-yl}methyl)piperidin-1-yl]-4-methoxy-1-oxo-2,3-dihydro-1H-isoindol-2-yl}piperidine-2,6-dione]
50 to 70	< 10	COc1c(N2CCC(CN3CCN(CC4CCN(c5cc(-c6n[nH]c7cc(F)c(OC8(C)CC8)cc67)ncn5)CC4)C(C)(C)C3)CC2)ccc2c1CN(C1CCC(=O)NC1=O)C2=O (stereo not shown) [Compound 278, 3-{5-[4-({4-[(1-{6-[6-fluoro-5-(1-methylcyclopropoxy)-1H-indazol-3-yl]pyrimidin-4-yl}piperidin-4-yl)methyl]-3,3-dimethylpiperazin-1-yl}methyl)piperidin-1-yl]-4-methoxy-1-oxo-2,3-dihydro-1H-isoindol-2-yl}piperidine-2,6-dione]
≥ 70	< 10	COc1c(N2CCC(CN3CCN(CC4CCN(c5cc(-c6n[nH]c7cc(F)c(OC8(C)CC8)cc67)ncn5)CC4)CC3(C)C)CC2)ccc2c1CN(C1CCC(=O)NC1=O)C2=O (stereo not shown) [Compound 279, 3-{5-[4-({4-[(1-{6-[6-fluoro-5-(1-methylcyclopropoxy)-1H-indazol-3-yl]pyrimidin-4-yl}piperidin-4-yl)methyl]-2,2-dimethylpiperazin-1-yl}methyl)piperidin-1-yl]-4-methoxy-1-oxo-2,3-dihydro-1H-isoindol-2-yl}piperidine-2,6-dione]

Source: patent US12559506B2, “Indazole based compounds and associated methods of use” (Arvinas Operations, Inc., priority 2021, dated 2026)
